Source: PubChem BioAssay (NCI)
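Test compounds were applied to cells in 96-well plates for 48 hours at 5 doses. TGI is the concentration that stops growth completely.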

Key:
Assay in all cases: NCI tumour cell line growth inhibition, 48 h
SF-539 CNS = test system: SF-539 CNS
A549 NSCLC = test system: A549 NSCLC
DMS 273 small cell lung = test system: DMS 273 small cell lung
DMS 114 small cell lung = test system: DMS 114 small cell lung
OVCAR-8 ovarian = test system: OVCAR-8 ovarian
KM20L2 colon = test system: KM20L2 colon
HOP-18 NSCLC = test system: HOP-18 NSCLC
DLD-1 colon = test system: DLD-1 colon
XF 498 CNS = test system: XF 498 CNS
HL-60(TB) leukemia = test system: HL-60(TB) leukemia
LXFL 529 NSCLC = test system: LXFL 529 NSCLC
M19-MEL melanoma = test system: M19-MEL melanoma
SF-268 CNS = test system: SF-268 CNS
RXF-631 renal = test system: RXF-631 renal
OVCAR-5 ovarian = test system: OVCAR-5 ovarian
SNB-78 CNS = test system: SNB-78 CNS

Row | Structure (SMILES) | TGI (SF-539 CNS) | TGI (A549 NSCLC) | TGI (DMS 273 small cell lung) | TGI (DMS 114 small cell lung) | TGI (OVCAR-8 ovarian) | TGI (KM20L2 colon) | TGI (HOP-18 NSCLC) | TGI (DLD-1 colon) | TGI (XF 498 CNS) | TGI (HL-60(TB) leukemia) | TGI (LXFL 529 NSCLC) | TGI (M19-MEL melanoma) | TGI (SF-268 CNS) | TGI (RXF-631 renal) | TGI (OVCAR-5 ovarian) | TGI (SNB-78 CNS)
1 | CN(C)c1ccc(C=C2C(=O)OC(C)(C)OC2=O)cc1Br | > 100 µM | > 100 µM | > 100 µM | > 100 µM | > 100 µM | > 100 µM | > 100 µM | > 100 µM | > 100 µM | > 100 µM | > 100 µM | > 100 µM | > 100 µM | > 100 µM | > 100 µM | –
2 | COc1ccc(NC(=O)C/C(C)=N\N=C(N)N)c([N+](=O)[O-])c1 | > 100 µM | > 100 µM | > 100 µM | > 100 µM | > 100 µM | > 100 µM | > 100 µM | > 100 µM | > 100 µM | > 100 µM | > 100 µM | > 100 µM | > 100 µM | – | > 100 µM | > 100 µM
3 | O=c1cc(-c2ccccc2)[nH]c2cc(O)ccc12 | > 100 µM | 81.8 µM | 87.8 µM | 34 µM | > 100 µM | 40.4 µM | > 100 µM | 35.7 µM | 50.4 µM | 40.7 µM | > 100 µM | 35.3 µM | > 100 µM | > 100 µM | > 100 µM | > 100 µM
4 | C=C1CC2OC2(C(=O)O[C@H]2CCC3[C@@H]4CCC5=CC(=O)CC[C@]5(C)C4CC[C@@]32C)C1=O (stereo partly specified) | 18.1 µM | 43 µM | 9.15 µM | 10.4 µM | 45.1 µM | 16.2 µM | 12.7 µM | 16.5 µM | 9.92 µM | 3.93 µM | 6.08 µM | 31.7 µM | 18.2 µM | – | 38.4 µM | 19.5 µM
